Experimental data published in US9561228B2 (Celgene Avilomics Research, Inc., priority 2013, dated 2017).

How the values were obtained:
Erk1 = target: T1, Erk1 (Homo sapiens, UniProt P27361); test: Protein Mass Modification Assay (intact protein MALDI, 60 min, 10-fold excess of compound); assay type: binding
T1 construct: purchased Millipore 14-439
Protocol: Protein Mass Modification Assay
Intact protein: Erk1 from Millipore (Cat. No. 14-439) was incubated for 60 min. at room temperature with a 10-fold excess of test compound to protein. 4 μL aliquots of the resulting mixture were diluted with 15 μL of 0.2% TFA prior to micro C4 ZipTipping directly onto the MALDI target using sinapinic acid as the desorption matrix (10 mg/ml in 0.1% TFA:Acetonitrile 50:50, v/v). The centroid mass of the target protein in the control sample was compared with the centroid mass of the target protein incubated with compound. A shift in the centroid mass of the treated protein compared to the untreated protein was divided by the molecular weight of the compound. This number corresponds to the percentage of modified protein after one hour incubation. Results from this assay are reported in Table A under the column “ERK1 Mass Mod (%).”

MEK1 activated ERK1 = target: T2, MEK1 activated ERK1 (Homo sapiens, UniProt P27361); test: Omnia continuous-read kinase assay for potency against MEK1 activated ERK1; assay type: biochemical; details: MEK1 activated ERK1, ATP at KM; read-out: ERK1 Omnia WT ATP KM IC50
T2 construct: purchased Millipore (Billerica, Mass.) 14-439-K
T2 sequence (P27361 whole entry): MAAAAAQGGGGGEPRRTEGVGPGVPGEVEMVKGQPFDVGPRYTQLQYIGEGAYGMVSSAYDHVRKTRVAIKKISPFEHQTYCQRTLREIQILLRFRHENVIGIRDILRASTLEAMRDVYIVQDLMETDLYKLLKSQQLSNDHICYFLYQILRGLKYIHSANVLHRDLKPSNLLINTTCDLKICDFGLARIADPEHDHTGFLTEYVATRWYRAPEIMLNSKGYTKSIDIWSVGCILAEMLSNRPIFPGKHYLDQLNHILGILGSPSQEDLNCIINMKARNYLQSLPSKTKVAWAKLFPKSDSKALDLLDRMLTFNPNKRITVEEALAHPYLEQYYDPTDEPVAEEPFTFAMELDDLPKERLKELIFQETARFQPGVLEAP
Method in brief: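 Apparent IC50 came from initial reaction slopes (RFU vs time) plotted against log inhibitor with a variable-slope fit. Reactions were started with ERK1 (4 nM final) added to 50 μM ATP, roughly at its appKM, and 10 μM Sox-conjugated ST17 peptide in 20 mM Tris pH 7.5, 5 mM MgCl2. Fluorescence was monitored every 71 seconds.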

[1] = tested on: ERK1/2 phosphorylation of p90RSK in HT29 cells; test: pRSK MSD Assay in HT29 cells; assay type: cell-based; details: Homo sapiens, HT-29, read-out: ERK1/ERK2 PRSK MSD HT29 EC50
Method in brief: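 Serum-starved HT29 cells (0.1% FBS overnight) treated with test compound for 120 min at 37° C, then lysed with protease and phosphatase inhibitors. Phospho-p90RSK quantified by MSD sandwich immunoassay: RSK capture antibody, phospho-RSK detection antibody plus Sulfo-tagged antibody, electrochemiluminescence read.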

[2] = tested on: HT-29 cells (colorectal adenocarcinoma); test: Inhibition of cancer cell proliferation, HT-29 (CellTiterGlo, 72 hours); assay type: cell-based; details: Homo sapiens
Method in brief: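 HT-29 cells seeded at 3000/well, then treated with 3-fold serial dilutions from a 5,000 nM two-fold solution in serum-free RPMI1640, untreated wells as control, for 72 h at 37° C. CellTiterGlo luminescence converted to cell number via a standard curve; GI50 from percent inhibition versus untreated growth.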

[3] = tested on: A375 cells (malignant melanoma); test: Inhibition of cancer cell proliferation, A375 (CellTiterGlo, 72 hours); assay type: cell-based; details: Homo sapiens, A-375
Protocol: Measurement of Inhibition of Cancer Cell Proliferation (A375/Malignant Melanoma)
The following protocol used an A375 cell line, which cell line is a model for malignant melanoma. A375 cells were split and 3000 cells in […] of growth medium were added per well of a flat-bottom 96-well plate. A two-fold test compound solution in serum-free DMEM was made, starting at 5,000 nM. Then, 3-fold serial dilutions were made across the plate from well 1 to well 11. Well 12, the last well in a row on the plate, was left as untreated control. 100 μl compound solutions were then transferred to the wells, so the total volume of media was 200 μl per well. Plates were returned to a 37° C. incubator, and the cells were cultured for 72 hours. To measure cell proliferation after 72 hours, media was discarded from the plates, 50 μl/well of fresh medium was added, and 50 μl CellTiterGlo solution was added (Promega Cat#G7573). The plate was covered with a dark lid and incubated for 10 min. A white sealing tape was applied to the bottom of the plate, and the plate was read in a luminescence plate reader. […] 50 μl CellTiterGlo was added per well, and the plate was read in a luminescence plate reader after 10 min. The reading was plotted vs. cell number to generate a standard curve and the equation of the curve fit. The compound-treated sample luminescence readings were converted to cell numbers using the curve-fit equation. The percent of inhibition, using untreated control as 100% growth, was then calculated. GI50 was then calculated by GraphPad Prism.

T1 sequence (P27361 whole entry): as above

| SMILES | ERK1 Mass Mod (%) (Erk1) | IC50 (MEK1 activated ERK1) [nM] | EC50 [1] [nM] | GI50 [2] [nM] | GI50 [3] [nM] |
| --- | --- | --- | --- | --- | --- |
| C/C=C/C(=O)Nc1cc(F)ccc1Nc1nc(N[C@@H]2CCC[C@H](C(N)=O)C2)ncc1Cl (racemic) [Compound I-113, Rac-cis-(E)-3-((4-((2-(but-2-enamido)-4-fluorophenyl)amino)-5-chloropyrimidin-2-yl)amino)cyclohexanecarboxamide] | F (key: E: a mass modification of ≧70%; F: a mass modification of 31-69%; G: a mass modification ≦30%) | > 1000 | > 1000 | – | – |
| C=CC(=O)Nc1ccccc1Nc1nc(N[C@H]2CC[C@H](F)CC2)ncc1C(F)(F)F [Compound I-111, N-(2-((2-(trans-(4-fluorocyclohexyl)amino)-5-(trifluoromethyl)pyrimidin-4-yl)amino)phenyl)acrylamide] | E (a mass modification of ≧70%) | – | – | – | – |
| C=CC(=O)Nc1cc(OC)ccc1Nc1nc(Nc2ccc(N3CCC[C@H]3C(N)=O)cc2C#N)ncc1Cl [Compound I-178, (S)-1-(4-((4-((2-acrylamido-4-methoxyphenyl)amino)-5-chloropyrimidin-2-yl)amino)-3-cyanophenyl)pyrrolidine-2-carboxamide] | E (a mass modification of ≧70%) | 101 to 500 | – | – | – |
| C=CC(=O)Nc1ccccc1Nc1nc(Nc2ccc(N3CCN(C(C)=O)CC3)cc2OC)ncc1C(F)(F)F [Compound I-66, N-(2-((2-((4-(4-Acetylpiperazin-1-yl)-2-methoxyphenyl)amino)-5-(trifluoromethyl)pyrimidin-4-yl)amino)phenyl)acrylamide] | E (key: E: a mass modification of ≧70%; F: a mass modification of 31-69%; G: a mass modification ≦30%) | 501 to 999 | – | – | – |
| C=CC(=O)Nc1cc(C)ccc1Nc1nc(Nc2cc(C(=O)NCCO)c(F)cc2C)ncc1Cl [Compound I-234, 5-((4-((2-acrylamido-4-methylphenyl)amino)-5-chloropyrimidin-2-yl)amino)-2-fluoro-N-(2-hydroxyethyl)-4-methylbenzamide] | – | 101 to 500 | 101 to 500 | 101 to 500 | 101 to 500 |
| C=CC(=O)N[C@H]1CCCC[C@@H]1Nc1nc(N[C@H]2CCCN(C(=O)CO)C2)ncc1C(F)(F)F (racemic) [Compound I-27, Rac-N-(2-((2-(((R)-1-(2-hydroxyacetyl)piperidin-3-yl)amino)-5-(trifluoromethyl)pyrimidin-4-yl)amino)-trans-cyclohexyl)acrylamide] | F (key: E: a mass modification of ≧70%; F: a mass modification of 31-69%; G: a mass modification ≦30%) | – | 501 to 999 | – | – |
| C=CC(=O)Nc1ccccc1Nc1nc(N[C@@H]2CCC[C@H](C(=O)O)C2)ncc1Cl (racemic) [Compound I-133, Rac-3-((4-((2-acrylamidophenyl)amino)-5-chloropyrimidin-2-yl)amino)-cis-cyclohexanecarboxylic acid] | E (a mass modification of ≧70%) | 101 to 500 | – | – | – |
| C=CC(=O)Nc1ccccc1Nc1nc(Nc2cc(C(=O)NC)c(F)cc2C)ncc1C(F)(F)F [Compound I-80, 5-((4-((2-Acrylamidophenyl)amino)-5-(trifluoromethyl)pyrimidin-2-yl)amino)-2-fluoro-N,4-dimethylbenzamide] | – | 101 to 500 | 101 to 500 | < 100 | 101 to 500 |
| CC(=O)N1CCC[C@H](Nc2ncc(C(F)(F)F)c(N[C@H]3[C@@H](C(N)=O)[C@@H]4C=C[C@H]3C4)n2)C1 [Compound I-308, (1S,2S,3R,4R)-3-((2-(((S)-1-acetylpiperidin-3-yl)amino)-5-(trifluoromethyl)pyrimidin-4-yl)amino)bicyclo[2.2.1]hept-5-ene-2-carboxamide] | – | 101 to 500 | > 1000 | 101 to 500 | 101 to 500 |
| O=C(CCCl)Nc1ccccc1Nc1nc(N[C@H]2CCCN(C(=O)CO)C2)ncc1C(F)(F)F [Compound I-22, (S)-3-Chloro-N-(2-((2-((1-(2-hydroxyacetyl)piperidin-3-yl)amino)-5-(trifluoromethyl)pyrimidin-4-yl)amino)phenyl)propanamide] | – | 101 to 500 | > 1000 | 501 to 999 | 101 to 500 |
| C=CC(=O)Nc1cc(C)ccc1Nc1nc(Nc2ccncc2C)ncc1Cl [Compound I-236, N-(2-((5-chloro-2-((3-methylpyridin-4-yl)amino)pyrimidin-4-yl)amino)-5-methylphenyl)acrylamide] | – | 101 to 500 | 101 to 500 | 101 to 500 | < 100 |
| C=CC(=O)Nc1ccccc1Nc1nc(Nc2cc(C(=O)NCCO)c(F)cc2C)ncc1C(F)(F)F [Compound I-81, 5-((4-((2-Acrylamidophenyl)amino)-5-(trifluoromethyl)pyrimidin-2-yl)amino)-2-fluoro-N-(2-hydroxyethyl)-4-methylbenzamide] | – | 101 to 500 | 101 to 500 | < 100 | < 100 |
| C=CC(=O)Nc1ccccc1Nc1nc(Nc2cc(C(=O)NCCO)c(F)cc2C)ncc1Cl [Compound I-232, 5-((4-((2-acrylamidophenyl)amino)-5-chloropyrimidin-2-yl)amino)-2-fluoro-N-(2-hydroxyethyl)-4-methylbenzamide] | – | 101 to 500 | 101 to 500 | < 100 | 101 to 500 |
| C=CC(=O)Nc1ccccc1Nc1nc(Nc2ccc(N(CCNC(=O)OC(C)(C)C)C(C)=O)cc2OC)ncc1Cl [Compound I-174, tert-butyl(2-(N-(4-((4-((2-acrylamidophenyl)amino)-5-chloropyrimidin-2-yl)amino)-3-methoxyphenyl)acetamido)ethyl)carbamate] | E (a mass modification of ≧70%) | 501 to 999 | – | – | – |
| C=CC(=O)Nc1cc(C)ccc1Nc1nc(Nc2cc(C(N)=O)ccc2C)ncc1C(F)(F)F [Compound I-79, 3-((4-((2-Acrylamido-4-methylphenyl)amino)-5-(trifluoromethyl)pyrimidin-2-yl)amino)-4-methylbenzamide] | – | 101 to 500 | < 100 | < 100 | < 100 |
| C=CC(=O)Nc1cc(F)ccc1Nc1nc(N[C@H]2CC[C@@H](F)CC2)ncc1C(F)(F)F [Compound I-8, N-(5-fluoro-2-((2-((cis-4-fluorocyclohexyl)amino)-5-(trifluoromethyl)pyrimidin-4-yl)amino)phenyl)acrylamide] | E (a mass modification of ≧70%) | 101 to 500 | – | – | – |
| C=CC(=O)Nc1ccccc1Nc1nc(Nc2ccc(N3CCN(C(C)=O)CC3)cc2OC)ncc1Cl [Compound I-149, N-(2-((2-((4-(4-acetylpiperazin-1-yl)-2-methoxyphenyl)amino)-5-chloropyrimidin-4-yl)amino)phenyl)acrylamide] | E (key: E: a mass modification of ≧70%; F: a mass modification of 31-69%; G: a mass modification ≦30%) | 101 to 500 | – | – | – |
| C=CC(=O)Nc1ccccc1Nc1nc(Nc2cc(C(=O)NOCCO)ccc2C#N)ncc1Cl [Compound I-202, 3-((4-((2-acrylamidophenyl)amino)-5-chloropyrimidin-2-yl)amino)-4-cyano-N-(2-hydroxyethoxyl)benzamide] | F (a mass modification of 31-69%) | 101 to 500 | – | – | – |
| C=CC(=O)Nc1cc(OC)ccc1Oc1nc(Nc2ccc(N3CCC[C@@H]3CO)cc2OC)ncc1C(N)=O [Compound I-264, (R)-4-(2-acrylamido-4-methoxyphenoxy)-2-((4-(2-(hydroxymethyl)pyrrolidin-1-yl)-2-methoxyphenyl)amino)pyrimidine-5-carboxamide] | F (a mass modification of 31-69%) | > 1000 | – | – | – |
